Columns and labels:
Format in all cases: cell-based, human
[1] = test system: CD34+ from cytapheresis; experiment: Amplification of erythroid progenitors from CD34+ HSCs derived from cytapheresis (cell count); details: cell count after culture
Protocol: (§1) IMDM (Biochrom), supplemented with transferrin (330 μg/mL), insulin (10 μg/mL), 5% AB serum pool (EFS) and heparin (3 U/mL). From day 0 to day 7, the medium was supplemented with IL-3 (5 ng/mL), SCF (100 ng/mL) and EPO (2 IU/mL). From day 7 until the end of the amplification of erythroblastic progenitors, the medium was supplemented with SCF (100 ng/mL) and EPO (2 IU/mL).
HSCs are obtained after magnetic separation using CD34+ beads according to the protocol provided by Milenyi (see CD34 MicroBead Kit, human, from Miltenyi Biotec).
On day 0 the cells were seeded at a concentration of 10,000 cells/mL, on day 4 the cells were diluted 1/5 in new medium, on day 7 the cells were washed and cultured at 100,000 cells/mL in new medium. On day 11 the cells were diluted to 100,000 cells/mL and seeded in a new medium. On day 14 the cells were reseeded at 300,000 cells/mL in a new medium. On day 18 the cells were diluted to 0.5 million/mL. From day 21 onwards, the cells were systematically returned to 1 million/mL on each maintenance day (i.e., twice per week).
Protocol 1: From day 0 to day 11 the cells are cultured in the basal medium. On day 11 the medium used is supplemented with 253.9 μM DMOG. […]
The cells are diluted to a tenth in trypan blue solution, allowing cell mortality to be assessed if necessary.

[2] = test system: CD34+ HTERT BMI1 BCL-XL; experiment: Amplification of erythroid progenitors from engineered cytapheresis HSCs overexpressing HTERT, BMI1 and BCL-XL (cell count); details: cell count on day 65
Protocol: as §1
(§2) HSCs are obtained from cytapheresis after magnetic separation using Miltenyi CD34+ beads.
(§3) On day 0 the cells were seeded at a concentration of 100,000 cells/mL, for two successive infections with the HTERT BMI1 lentiviral supernatant and the BCL-XL retroviral supernatant or the HTERT BMI1 lentiviral supernatant and the LMO2 lentiviral supernatant; on day 3 the cells were washed 3 times and reseeded at a concentration of 10,000 cells/mL, on day 4 the cells were diluted to 1/5 in new medium. On day 7 the cells were washed and cultured at 100,000 cells/mL in new medium. On day 11 the cells were diluted to 100,000 cells/mL and seeded in a new medium. On day 14 the cells were reseeded to 300,000 cells/mL in a new medium. On day 18 the cells were diluted to 0.5 million/mL. From day 21 onwards, the cells were systematically reset to 1 million/mL each day of maintenance (i.e., twice per week).
(§4) Protocol 1: From day 0 to day 11 the cells are cultured in the basal medium. […]

[3] = test system: CD34+ HTERT BMI1 LMO2; experiment: Amplification of erythroid progenitors from engineered cytapheresis HSCs overexpressing HTERT, BMI1 and LMO2 (cell count); details: cell count on day 65
Protocol: as §1, §2, §3, §4

SMILES: C[C@@H]1C[C@H]2[C@@H]3CCC4=CC(=O)C=C[C@]4(C)[C@@]3(F)[C@@H](O)C[C@]2(C)[C@@]1(O)C(=O)CO [Protocol 3, dexamethasone]
- amplification of erythroid progenitors/CD34+ from cytapheresis on day 58 [1]: 2.47 · 10^7
- amplification of erythroid progenitors/CD34+ (CD34+ HTERT BMI1 BCL-XL) [2]: 5.76 · 10^5
- amplification of erythroid progenitors/CD34+ (CD34+ HTERT BMI1 LMO2) [3]: 5.12 · 10^6
